US6727066B2, “Genes expressed in treated human C3A liver cell cultures” (Incyte Corporation, priority 2000, dated 2004)

Test system: human C3A liver cell cultures
Experiment: Microarray differential expression of cDNAs in treated human C3A liver cell cultures
Format: cell-based
Settings: change vs untreated C3A cells
From the text: Incyte clones represent template sequences derived from the LIFESEQ GOLD assembled human sequence database (Incyte Genomics). In cases where more than one clone was available for a particular template, the 5′-most clone in the template was used on the microarray. The GENEALBUM GEM series 1-6 microarrays (Incyte Genomics) contain 52,616 array elements which represent 17,472 annotated clusters and 35,144 unannotated clusters. The HUMAN GENOME GEM series 1-3 microarrays (Incyte Genomics) contain 28,626 array elements which represent 10,068 annotated clusters and 18,558 unannotated clusters. For the UNIGEM series microarrays (Incyte Genomics), Incyte clones were mapped to non-redundant Unigene clusters (Unigene database (build 46), NCBI; Shuler (1997) J Mol Med 75:694-698), and the 5′ clone with the strongest BLAST alignment (at least 90% identity and 100 bp overlap) was chosen, verified, and used in the construction of the microarray. The UNIGEM V microarray (Incyte Genomics) contains 7075 array elements which represent 4610 annotated genes and 2,184 unannotated clusters.
To construct microarrays, cDNAs were amplified from bacterial cells using primers complementary to vector sequences flanking the cDNA insert. […] Amplified cDNAs were then purified using […]-400 columns (APB). Purified cDNAs were immobilized on polymer-coated glass slides. Glass microscope slides (Corning, Corning N.Y.) were cleaned by ultrasound in 0.1% SDS and acetone, with extensive distilled water washes between and after treatments. Glass slides were etched in 4% hydrofluoric acid (VWR Scientific Products, West Chester Pa.), washed thoroughly in distilled water, and coated with 0.05% aminopropyl silane (Sigma Aldrich) in 95% ethanol. Coated slides were cured in a 110° C. oven. cDNAs were applied to the coated glass substrate using a procedure described in U.S. Pat. No. 5,807,522. One microliter of the cDNA at an average concentration of 100 ng/ul was loaded into the open capillary printing element by a high-speed robotic apparatus which then deposited about 5 nl of cDNA per slide.
Microarrays were UV-crosslinked using a […] UV-crosslinker (Stratagene), and then washed at room temperature once in 0.2% SDS and three times in distilled water. Non-specific binding sites were blocked by incubation of microarrays in 0.2% casein in phosphate buffered saline (Tropix, Bedford Mass.) for 30 minutes at 60° C. followed by washes in 0.2% SDS and distilled water as before.
Early confluent C3A cells (ATTC, Manassas Va.) were treated with captopril (0.5, 2, 48, and 60 μg/ml) for 1, 3, and 6 hours. Early confluent C3A cells were treated with enalapril (0.5, 2, 48, and 60 μg/ml) for 1, 3, and 6 hours. Early confluent C3A cells were treated with LY294002 (0.5, 2, 15, and 25 μg/ml) for 1, 3, and 6 hours. Early confluent C3A cells were starved of insulin for 3 days prior to treatment, then treated with LY294002 (10 μM) for 2, 24, 36, and 72 hours in the presence of insulin. Early confluent C3A cells were treated with DES (1, 10, and 100 μM) for 1, 3, and 6 hours. Early confluent C3A cells were treated with dexamethasone (1 and 20 μM) for 0, 2, 6, and 24 hours. Early confluent C3A cells were treated with MCA (0.5 and 10 μM) for 2, 6, and 24 hours. In all cases mRNA from untreated early confluent cells were prepared in parallel as described below.
Cells were harvested and lysed in 1 ml of TRIZOL reagent (5×10^6 cells/ml; Life Technologies). The lysates were vortexed thoroughly and incubated at room temperature for 2-3 minutes and extracted with 0.5 ml chloroform. The extract was mixed, incubated at room temperature for 5 minutes, and centrifuged at 15,000 rpm for 15 minutes at 4° C. The aqueous layer was collected and an equal volume of isopropanol was added.

Cc1ccc2cc3c(ccc4ccccc43)c3c2c1CC3 [MCA, 3-methylcholanthrene]
expression level of cDNA clone 72713: 3 | expression level of cDNA clone 85606: 2.96 | expression level of cDNA clone 118501: 4.54 | expression level of cDNA clone 121785: 3.3 | expression level of cDNA clone 136073: 3.1 | expression level of cDNA clone 279898: 5.48 | expression level of cDNA clone 311346: 4.59 | expression level of cDNA clone 318486: 4.11 | expression level of cDNA clone 408886: 4.93 | expression level of cDNA clone 450856: 2.89 | expression level of cDNA clone 452321: 4.3 | expression level of cDNA clone 454839: 3.4 | expression level of cDNA clone 462069: 2.41 | expression level of cDNA clone 481402: 3.22 | expression level of cDNA clone 510056: 5.65 | expression level of cDNA clone 511448: 3.05 | expression level of cDNA clone 560115: −2.61 | expression level of cDNA clone 604019: 3.28 | expression level of cDNA clone 630625: 2.25 | expression level of cDNA clone 669498: −2.97 | expression level of cDNA clone 701484: 2.51 | expression level of cDNA clone 872017: 2.85 | expression level of cDNA clone 1308112: 2.28 | expression level of cDNA clone 1316801: 3.38 | expression level of cDNA clone 1379063: −3.63 | expression level of cDNA clone 1381654: 2.64 | expression level of cDNA clone 1457424: 2.93 | expression level of cDNA clone 1522880: 2.74 | expression level of cDNA clone 1560906: 3.13 | expression level of cDNA clone 1616783: 2.63 | expression level of cDNA clone 1619292: −2.8 | expression level of cDNA clone 1623214: −3.12 | expression level of cDNA clone 1630990: 3.34 | expression level of cDNA clone 1696224: 4.4 | expression level of cDNA clone 1756875: 2.99 | expression level of cDNA clone 1786554: 2.67 | expression level of cDNA clone 1833362: −2.33 | expression level of cDNA clone 1890576: −3.07 | expression level of cDNA clone 1930235: 2.93 | expression level of cDNA clone 1975268: −2.51 | expression level of cDNA clone 1998269: 2.46 | expression level of cDNA clone 2055867: −2.67 | expression level of cDNA clone 2120743: 2.97 | expression level of cDNA clone 2123516: 3.83 | expression level of cDNA clone 2195427: 2.32 | expression level of cDNA clone 2232658: 2.25 | expression level of cDNA clone 2252107: 2.44 | expression level of cDNA clone 2293496: −2.88 | expression level of cDNA clone 2343348: 2.89 | expression level of cDNA clone 2511277: 3.07 | expression level of cDNA clone 2513883: 3.67 | expression level of cDNA clone 2520894: 3.21 | expression level of cDNA clone 2579218: 2.42 | expression level of cDNA clone 2660756: 2.25 | expression level of cDNA clone 2675232: 3.09 | expression level of cDNA clone 2695371: 2.68 | expression level of cDNA clone 2708055: 2.45 | expression level of cDNA clone 2756333: 2.66 | expression level of cDNA clone 2757583: 4.31 | expression level of cDNA clone 2765271: 2.25 | expression level of cDNA clone 2822027: 2.96 | expression level of cDNA clone 2825358: 2.44 | expression level of cDNA clone 2831490: 2.48 | expression level of cDNA clone 2860918: −3.2 | expression level of cDNA clone 2884613: 2.2 | expression level of cDNA clone 2891601: 2.56 | expression level of cDNA clone 2912637: −4.29 | expression level of cDNA clone 2921991: −3.43 | expression level of cDNA clone 2955163: 3.24 | expression level of cDNA clone 2956444: 3.04 | expression level of cDNA clone 3074113: 3.03 | expression level of cDNA clone 3108506: 3.02 | expression level of cDNA clone 3158828: 2.67 | expression level of cDNA clone 3222802: 3.23 | expression level of cDNA clone 3225977: 2.59 | expression level of cDNA clone 3381870: 2.3 | expression level of cDNA clone 3407653: 2.7 | expression level of cDNA clone 3472927: 2.77 | expression level of cDNA clone 3493381: 2.62 | expression level of cDNA clone 3606046: 3.24 | expression level of cDNA clone 3792988: 3.23 | expression level of cDNA clone 4019706: 3.55 | expression level of cDNA clone 4070979: 2.44 | expression level of cDNA clone 4091186: 2.64 | expression level of cDNA clone 4092112: 3.55 | expression level of cDNA clone 4203937: 7.13 | expression level of cDNA clone 4246966: 3.03 | expression level of cDNA clone 4254855: 2.3 | expression level of cDNA clone 4284384: 2.73 | expression level of cDNA clone 4287327: −2.54 | expression level of cDNA clone 4403805: 2.4 | expression level of cDNA clone 4508879: 2.68 | expression level of cDNA clone 4549259: 2.53 | expression level of cDNA clone 4721130: 3.57 | expression level of cDNA clone 5093071: 2.36 | expression level of cDNA clone 5102731: 2.33 | expression level of cDNA clone 5266015: 2.47 | expression level of cDNA clone 5266376: 2.54 | expression level of cDNA clone 5512044: 2.26

CC(C)OC(=O)C(C)(C)Oc1ccc(C(=O)c2ccc(Cl)cc2)cc1 [Fenofibrate, fenofibrate]
expression level of cDNA clone 63038: −2.9 | expression level of cDNA clone 280932: −2.67 | expression level of cDNA clone 437481: 2.44 | expression level of cDNA clone 443991: 2.47 | expression level of cDNA clone 450856: 2.49 | expression level of cDNA clone 452321: 3 | expression level of cDNA clone 480791: −2.27 | expression level of cDNA clone 630625: 3.95 | expression level of cDNA clone 970905: −4.06 | expression level of cDNA clone 1315663: −4.02 | expression level of cDNA clone 1619292: −5 | expression level of cDNA clone 1705208: 2.83 | expression level of cDNA clone 1846463: 6.58 | expression level of cDNA clone 1969563: 6.8 | expression level of cDNA clone 1975268: −2.42 | expression level of cDNA clone 2042056: 5.46 | expression level of cDNA clone 2055569: −3.12 | expression level of cDNA clone 2055867: −3.4 | expression level of cDNA clone 2123516: 4.6 | expression level of cDNA clone 2234853: −2.7 | expression level of cDNA clone 2360580: −4.5 | expression level of cDNA clone 2382195: −2.87 | expression level of cDNA clone 2399162: −2.5 | expression level of cDNA clone 2448149: −2.35 | expression level of cDNA clone 2513883: 4.47 | expression level of cDNA clone 2607921: −3.2 | expression level of cDNA clone 2757583: 4.75 | expression level of cDNA clone 2769888: −3.17 | expression level of cDNA clone 2929484: −2.89 | expression level of cDNA clone 2957205: 2.44 | expression level of cDNA clone 3222802: 2.55 | expression level of cDNA clone 3272165: −2.57 | expression level of cDNA clone 4287327: −3.14 | expression level of cDNA clone 4556538: 2.53
